test system: GST-Bcl-2; assay: TR-FRET binding assay, Bcl-2; conditions: TR-FRET Ki values
Procedure, shortened: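 Ki values come from Wang's competitive-binding equation applied to TR-FRET signal (excitation 340/35 nm; emission 520/525 nm F-Bak peptide, 495/510 nm Tb antibody). Protein, probe and antibody incubated with compound 3 h at room temperature; dilution series began at 50 μM as 2× stock in 10% DMSO.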

How did the “Binding selectivity ratio (Bcl-XL Ki/Bcl-2 Ki)” value (shortened to “Binding selectivity ratio”) turn out when `CC1(C)CCC(CN2CCN(c3ccc(C(=O)NS(=O)(=O)c4ccc(NCCC(F)(F)F)c([N+](=O)[O-])c4)c(Oc4ccc5[nH]ccc5c4)c3)CC2)=C(c2ccc(Cl)cc2)C1` [EXAMPLE 324, 4-(4-{[2-(4-chlorophenyl)-4,4-dimethylcyclohex-1-en-1-yl]methyl}piperazin-1-yl)-2-(1H-indol-5-yloxy)-N-({3-nitro-4-[(3,3,3-trifluoropropyl)amino]phenyl}sulfonyl)benzamide] was run?
Its value is over 445.7.

For `CC1(C)CCC(CN2CCN(c3ccc(C(=O)NS(=O)(=O)c4cnc(NCC5CCOCC5)c(Br)c4)c(Oc4cccc5[nH]ccc45)c3)CC2)=C(c2ccc(Cl)cc2)C1` [EXAMPLE 325, N-({5-bromo-6-[(tetrahydro-2H-pyran-4-ylmethyl)amino]pyridin-3-yl}sulfonyl)-4-(4-{[2-(4-chlorophenyl)-4,4-dimethylcyclohex-1-en-1-yl]methyl}piperazin-1-yl)-2-(1H-indol-4-yloxy)benzamide], which “Binding selectivity ratio” value is on record?
Its value is over 283.1.

`CC1(C)CCC(CN2CCN(c3ccc(C(=O)NS(=O)(=O)c4ccc(NCC5CCS(=O)(=O)C5)c([N+](=O)[O-])c4)c(Oc4cccc5[nH]ccc45)c3)CC2)=C(c2ccc(Cl)cc2)C1` (stereo not shown) [EXAMPLE 326, 4-(4-{[2-(4-chlorophenyl)-4,4-dimethylcyclohex-1-en-1-yl]methyl}piperazin-1-yl)-N-[(4-{[(1,1-dioxidotetrahydrothien-3-yl)methyl]amino}-3-nitrophenyl)sulfonyl]-2-(1H-indol-4-yloxy)benzamide] was tested. Which “Binding selectivity ratio” value did it give?
The value was over 5708.8.

With `CC1(C)CCC(CN2CCN(c3ccc(C(=O)NS(=O)(=O)c4ccc(OCC5(F)CCOCC5)c([N+](=O)[O-])c4)c(Oc4ccc5[nH]ccc5c4)c3)CC2)=C(c2ccc(Cl)cc2)C1` [EXAMPLE 327, 4-(4-{[2-(4-chlorophenyl)-4,4-dimethylcyclohex-1-en-1-yl]methyl}piperazin-1-yl)-N-({4-[(4-fluorotetrahydro-2H-pyran-4-yl)methoxy]-3-nitrophenyl}sulfonyl)-2-(1H-indol-5-yloxy)benzamide] as the compound, how does the “Binding selectivity ratio” value read?
Its value is 3035.4.

Which “Binding selectivity ratio” value does the source give for `CNc1ccc(S(=O)(=O)NC(=O)c2ccc(N3CCN(CC4=C(c5ccc(Cl)cc5)CC(C)(C)CC4)CC3)cc2Oc2ccc3[nH]ccc3c2)cc1S(=O)(=O)C(F)(F)F` [EXAMPLE 328, 4-(4-{[2-(4-chlorophenyl)-4,4-dimethylcyclohex-1-en-1-yl]methyl}piperazin-1-yl)-2-(1H-indol-5-yloxy)-N-({4-(methylamino)-3-[(trifluoromethyl)sulfonyl]phenyl}sulfonyl)benzamide] here?
Its value is over 355.0.

For `CC1(C)CCC(CN2CCN(c3ccc(C(=O)NS(=O)(=O)c4cnc(OCC5CCOCC5)c(Br)c4)c(Oc4ccc5[nH]ccc5c4)c3)CC2)=C(c2ccc(Cl)cc2)C1` [EXAMPLE 329, N-{[5-bromo-6-(tetrahydro-2H-pyran-4-ylmethoxy)pyridin-3-yl]sulfonyl}-4-(4-{[2-(4-chlorophenyl)-4,4-dimethylcyclohex-1-en-1-yl]methyl}piperazin-1-yl)-2-(1H-indol-5-yloxy)benzamide], which “Binding selectivity ratio” value is on record?
Its value is over 2319.5.

How did the “Binding selectivity ratio” value turn out when `CC(C)Oc1cc(-c2ccc(Cl)cc2)c(CN2CCN(c3ccc(C(=O)NS(=O)(=O)c4ccc(NCC5CCOCC5)c([N+](=O)[O-])c4)c(Oc4ccc5[nH]ccc5c4)c3)CC2)cn1` [EXAMPLE 330, 4-(4-{[4-(4-chlorophenyl)-6-isopropoxypyridin-3-yl]methyl}piperazin-1-yl)-2-(1H-indol-5-yloxy)-N-({3-nitro-4-[(tetrahydro-2H-pyran-4-ylmethyl)amino]phenyl}sulfonyl)benzamide] was run?
The value was over 8.8.

`CC1(C)CCC(CN2CCN(c3ccc(C(=O)NS(=O)(=O)c4cnc(OCC5CCOCC5)c(-c5nccs5)c4)c(Oc4ccc5[nH]ccc5c4)c3)CC2)=C(c2ccc(Cl)cc2)C1` [EXAMPLE 331, 4-(4-{[2-(4-chlorophenyl)-4,4-dimethylcyclohex-1-en-1-yl]methyl}piperazin-1-yl)-2-(1H-indol-5-yloxy)-N-{[6-(tetrahydro-2H-pyran-4-ylmethoxy)-5-(1,3-thiazol-2-yl)pyridin-3-yl]sulfonyl}benzamide] was tested. Which “Binding selectivity ratio” value did it give?
Its value is over 79.8.

For `COCCNC(=O)c1ccc(S(=O)(=O)NC(=O)c2ccc(N3CCN(CC4=C(c5ccc(Cl)cc5)CC(C)(C)CC4)CC3)cc2Oc2ccc3[nH]ccc3c2)cc1` [EXAMPLE 332, 4-(4-{[2-(4-chlorophenyl)-4,4-dimethylcyclohex-1-en-1-yl]methyl}piperazin-1-yl)-2-(1H-indol-5-yloxy)-N-[(4-{[(2-methoxyethyl)amino]carbonyl}phenyl)sulfonyl]benzamide], which “Binding selectivity ratio” value is on record?
Its value is over 52.5.

With `CC1(C)CCC(CN2CCN(c3ccc(C(=O)NS(=O)(=O)c4cnc(OCC5CCOCC5)c(C#N)c4)c(Oc4ccc5[nH]ccc5c4)c3)CC2)=C(c2ccc(Cl)cc2)C1` [EXAMPLE 333, 4-(4-{[2-(4-chlorophenyl)-4,4-dimethylcyclohex-1-en-1-yl]methyl}piperazin-1-yl)-N-{[5-cyano-6-(tetrahydro-2H-pyran-4-ylmethoxy)pyridin-3-yl]sulfonyl}-2-(1H-indol-5-yloxy)benzamide] as the compound, how does the “Binding selectivity ratio” value read?
The value was over 7415.7.

`CC(=O)N1CCC(Nc2ccc(S(=O)(=O)NC(=O)c3ccc(N4CCN(CC5=C(c6ccc(Cl)cc6)CC(C)(C)CC5)CC4)cc3Oc3ccc4[nH]ccc4c3)cc2[N+](=O)[O-])CC1` [EXAMPLE 334, N-({4-[(1-acetylpiperidin-4-yl)amino]-3-nitrophenyl}sulfonyl)-4-(4-{[2-(4-chlorophenyl)-4,4-dimethylcyclohex-1-en-1-yl]methyl}piperazin-1-yl)-2-(1H-indol-5-yloxy)benzamide] was tested. Which “Binding selectivity ratio” value did it give?
Its value is over 3697.5.

For `CC1(C)CCC(CN2CCN(c3ccc(C(=O)NS(=O)(=O)c4ccc(NC5CCN(S(C)(=O)=O)CC5)c([N+](=O)[O-])c4)c(Oc4ccc5[nH]ccc5c4)c3)CC2)=C(c2ccc(Cl)cc2)C1` [EXAMPLE 335, 4-(4-{[2-(4-chlorophenyl)-4,4-dimethylcyclohex-1-en-1-yl]methyl}piperazin-1-yl)-2-(1H-indol-5-yloxy)-N-[(4-{[1-(methylsulfonyl)piperidin-4-yl]amino}-3-nitrophenyl)sulfonyl]benzamide], which “Binding selectivity ratio” value is on record?
The value was over 1508.2.

For `CC1(C)CCC(CN2CCN(c3ccc(C(=O)NS(=O)(=O)c4ccc(NCC5COCCO5)c([N+](=O)[O-])c4)c(Oc4ccc5[nH]ccc5c4)c3)CC2)=C(c2ccc(Cl)cc2)C1` (stereo not shown) [EXAMPLE 336, 4-(4-{[2-(4-chlorophenyl)-4,4-dimethylcyclohex-1-en-1-yl]methyl}piperazin-1-yl)-N-({4-[(1,4-dioxan-2-ylmethyl)amino]-3-nitrophenyl}sulfonyl)-2-(1H-indol-5-yloxy)benzamide], which “Binding selectivity ratio” value is on record?
Its value is 2301.3.

With `CC(=O)N1CCC(Nc2ccc(S(=O)(=O)NC(=O)c3ccc(N4CCN(CC5=C(c6ccc(Cl)cc6)CC(C)(C)CC5)CC4)cc3Oc3cccc4[nH]ccc34)cc2[N+](=O)[O-])CC1` [EXAMPLE 337, N-({4-[(1-acetylpiperidin-4-yl)amino]-3-nitrophenyl}sulfonyl)-4-(4-{[2-(4-chlorophenyl)-4,4-dimethylcyclohex-1-en-1-yl]methyl}piperazin-1-yl)-2-(1H-indol-4-yloxy)benzamide] as the compound, how does the “Binding selectivity ratio” value read?
The value was over 1233.3.

Which “Binding selectivity ratio” value does the source give for `CC1(C)CCC(CN2CCN(c3ccc(C(=O)NS(=O)(=O)c4ccc(NC5CCN(S(C)(=O)=O)CC5)c([N+](=O)[O-])c4)c(Oc4cccc5[nH]ccc45)c3)CC2)=C(c2ccc(Cl)cc2)C1` [EXAMPLE 338, 4-(4-{[2-(4-chlorophenyl)-4,4-dimethylcyclohex-1-en-1-yl]methyl}piperazin-1-yl)-2-(1H-indol-4-yloxy)-N-[(4-{[1-(methylsulfonyl)piperidin-4-yl]amino}-3-nitrophenyl)sulfonyl]benzamide] here?
The value was over 1637.7.

`O=C(NS(=O)(=O)c1ccc(NCC2CCOCC2)c([N+](=O)[O-])c1)c1ccc(N2CCN(Cc3ccc(C(F)(F)F)cc3-c3ccc(Cl)cc3)CC2)cc1Oc1ccc2[nH]ccc2c1` [EXAMPLE 339, 4-(4-{[4′-chloro-5-(trifluoromethyl)-1,1′-biphenyl-2-yl]methyl}piperazin-1-yl)-2-(1H-indol-5-yloxy)-N-({3-nitro-4-[(tetrahydro-2H-pyran-4-ylmethyl)amino]phenyl}sulfonyl)benzamide] was tested. Which “Binding selectivity ratio” value did it give?
The value was over 46.7.

For `O=C(NS(=O)(=O)c1ccc(OCC2CCOCC2)c([N+](=O)[O-])c1)c1ccc(N2CCN(Cc3ccc(C(F)(F)F)cc3-c3ccc(Cl)cc3)CC2)cc1Oc1ccc2[nH]ccc2c1` [EXAMPLE 340, 4-(4-{[4′-chloro-5-(trifluoromethyl)-1,1′-biphenyl-2-yl]methyl}piperazin-1-yl)-2-(1H-indol-5-yloxy)-N-{[3-nitro-4-(tetrahydro-2H-pyran-4-ylmethoxy)phenyl]sulfonyl}benzamide], which “Binding selectivity ratio” value is on record?
Its value is over 86.9.

`CC(C)(C)c1ccc(CN2CCN(c3ccc(C(=O)NS(=O)(=O)c4ccc(NCC5CCOCC5)c([N+](=O)[O-])c4)c(Oc4ccc5[nH]ccc5c4)c3)CC2)c(-c2ccc(Cl)cc2)c1` [EXAMPLE 341, 4-{4-[(5-tert-butyl-4′-chloro-1,1′-biphenyl-2-yl)methyl]piperazin-1-yl}-2-(1H-indol-5-yloxy)-N-({3-nitro-4-[(tetrahydro-2H-pyran-4-ylmethyl)amino]phenyl}sulfonyl)benzamide] was tested. Which “Binding selectivity ratio” value did it give?
Its value is over 50.8.

Which “Binding selectivity ratio” value does the source give for `CC(C)(C)c1ccc(CN2CCN(c3ccc(C(=O)NS(=O)(=O)c4ccc(OCC5CCOCC5)c([N+](=O)[O-])c4)c(Oc4ccc5[nH]ccc5c4)c3)CC2)c(-c2ccc(Cl)cc2)c1` [EXAMPLE 342, 4-{4-[(5-tert-butyl-4′-chloro-1,1′-biphenyl-2-yl)methyl]piperazin-1-yl}-2-(1H-indol-5-yloxy)-N-{[3-nitro-4-(tetrahydro-2H-pyran-4-ylmethoxy)phenyl]sulfonyl}benzamide] here?
The value was over 25.6.

Source: patent US9125913B2, “Bcl-2-selective apoptosis-inducing agents for the treatment of cancer and immune diseases” (AbbVie Inc., priority 2008, dated 2015)
